# Measured values published in paper PMC7812727, “Neuropilin 1 and Neuropilin 2 gene invalidation or pharmacological inhibition reveals their relevance for the treatment of metastatic renal cell carcinoma” (Journal of Experimental & Clinical Cancer Research : CR, 2021).
# Assays:
# NRP1 (Neuropilin 1) = target: T1, NRP1 (Neuropilin 1) (Homo sapiens, UniProt O14786); assay: plate-based competitive binding assay: displacement of biotinylated VEGFA from coated recombinant human NRP1 (chemiluminescence); assay type: biochemical
# T1 construct: recombinant human NRP1
# From the text: plate-based competitive binding assay: displacement of biotinylated VEGFA from coated recombinant human NRP1 (chemiluminescence) on NRP1 (Neuropilin 1) | NRPa-308 inhibited VEGFA/NRP1 and VEGFA/NRP2 binding in a dose-dependent manner
# NRP2 (Neuropilin 2) = target: T2, NRP2 (Neuropilin 2) (Homo sapiens, UniProt O60462); assay: plate-based competitive binding assay: displacement of biotinylated VEGFA, or of VEGFC, from coated recombinant human NRP2 (chemiluminescence); assay type: biochemical
# T2 construct: recombinant human NRP2
# T2 sequence (O60462 21-931): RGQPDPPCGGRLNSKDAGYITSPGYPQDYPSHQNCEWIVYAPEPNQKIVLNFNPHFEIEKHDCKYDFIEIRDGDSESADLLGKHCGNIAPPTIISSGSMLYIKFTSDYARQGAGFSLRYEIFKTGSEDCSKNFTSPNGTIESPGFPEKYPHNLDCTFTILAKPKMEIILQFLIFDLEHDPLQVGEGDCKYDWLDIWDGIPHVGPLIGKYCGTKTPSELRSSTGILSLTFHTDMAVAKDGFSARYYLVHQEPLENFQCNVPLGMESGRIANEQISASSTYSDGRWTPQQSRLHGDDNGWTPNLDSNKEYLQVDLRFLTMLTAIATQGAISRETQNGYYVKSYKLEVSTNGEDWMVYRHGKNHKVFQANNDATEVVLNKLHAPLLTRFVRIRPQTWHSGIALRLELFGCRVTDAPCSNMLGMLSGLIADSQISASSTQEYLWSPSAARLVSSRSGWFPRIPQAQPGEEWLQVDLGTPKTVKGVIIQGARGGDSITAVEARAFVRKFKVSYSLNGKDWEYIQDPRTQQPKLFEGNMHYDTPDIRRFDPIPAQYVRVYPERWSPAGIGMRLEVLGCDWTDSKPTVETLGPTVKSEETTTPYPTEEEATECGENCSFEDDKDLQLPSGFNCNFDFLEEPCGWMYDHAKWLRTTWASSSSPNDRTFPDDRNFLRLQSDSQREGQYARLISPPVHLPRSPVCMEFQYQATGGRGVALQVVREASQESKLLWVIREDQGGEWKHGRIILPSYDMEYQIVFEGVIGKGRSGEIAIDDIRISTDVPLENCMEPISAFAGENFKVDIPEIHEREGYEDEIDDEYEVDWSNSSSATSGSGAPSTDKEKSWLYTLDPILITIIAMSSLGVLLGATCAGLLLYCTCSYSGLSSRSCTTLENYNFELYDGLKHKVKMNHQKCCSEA
# From the text: plate-based competitive binding assay: displacement of biotinylated VEGFA, or of VEGFC, from coated recombinant human NRP2 (chemiluminescence) on NRP2 (Neuropilin 2) | NRPa-308 inhibited VEGFA/NRP1 and VEGFA/NRP2 binding in a dose-dependent manner
# T1 sequence (O14786 22-923): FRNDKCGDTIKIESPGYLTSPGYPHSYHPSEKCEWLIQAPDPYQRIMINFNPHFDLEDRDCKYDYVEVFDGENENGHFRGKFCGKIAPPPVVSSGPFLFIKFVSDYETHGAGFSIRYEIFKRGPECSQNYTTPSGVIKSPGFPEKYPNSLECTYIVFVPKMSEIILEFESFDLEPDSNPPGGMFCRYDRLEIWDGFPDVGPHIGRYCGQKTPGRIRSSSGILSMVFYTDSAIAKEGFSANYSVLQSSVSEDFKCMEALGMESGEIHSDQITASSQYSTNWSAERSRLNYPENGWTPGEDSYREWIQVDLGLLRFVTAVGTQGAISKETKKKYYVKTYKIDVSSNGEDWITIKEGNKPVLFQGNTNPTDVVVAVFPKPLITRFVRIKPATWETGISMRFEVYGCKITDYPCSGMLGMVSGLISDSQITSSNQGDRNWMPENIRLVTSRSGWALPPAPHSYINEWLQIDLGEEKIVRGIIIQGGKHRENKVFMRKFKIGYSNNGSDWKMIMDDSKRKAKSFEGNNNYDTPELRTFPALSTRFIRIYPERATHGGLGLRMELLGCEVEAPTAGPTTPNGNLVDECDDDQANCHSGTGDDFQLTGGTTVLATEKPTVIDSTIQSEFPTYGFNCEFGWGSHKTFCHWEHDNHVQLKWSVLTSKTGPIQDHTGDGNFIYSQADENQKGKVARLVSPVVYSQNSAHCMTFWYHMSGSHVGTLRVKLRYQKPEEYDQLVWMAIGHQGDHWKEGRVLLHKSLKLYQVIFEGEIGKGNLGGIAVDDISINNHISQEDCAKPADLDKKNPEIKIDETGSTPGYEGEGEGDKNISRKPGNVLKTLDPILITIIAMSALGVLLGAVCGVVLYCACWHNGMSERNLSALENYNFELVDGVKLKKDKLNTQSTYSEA
structure (smiles),measurement,setting,value
CCOc1ccccc1NC(=O)c1ccc(C)c(S(=O)(=O)Nc2ccc(C)cc2)c1 [NRPa-308],% maximal inhibition,NRP1 (Neuropilin 1),~ 40 % maximal inhibition
same,% maximal inhibition,NRP2 (Neuropilin 2),~ 40 % maximal inhibition
